“Also recorded” adds a separate entry of the source.
How the values were obtained:
Design in all cases: species or system human
[1] = Buffering effect on pH of saliva following acid challenge with cola beverage; conditions: cola titration; 0.0625% reagent; FIG. 2
Experimental: (§1) Aqueous solutions containing arginine and zinc salts were created to carry out the following Examples. Solution 1 was prepared by mixing L-arginine (0.375 g), zinc oxide (ZnO, 0.25 g), and zinc citrate trihydrate (0.125 g) in deionized water (24.25 mL). These values correspond to the following percentages by mass: 1.5% L-arginine, 1% ZnO, 0.5% zinc citrate trihydrate. Additional control solutions were prepared of each regent alone at equal concentrations. Each solution was diluted to 25 g total mass with deionized water.
Paraffin-stimulated whole saliva was collected from a healthy subject. Each saliva sample was mixed by an appropriate means. Immediately prior to analysis, the ex-vivo saliva samples were pretreated with aliquots of Solution 1 to give a range of active dilutions. A control sample containing untreated whole saliva was also prepared for comparison. The dilutions were prepared as in Table 2.
The samples as described in Table 2 were tested for buffering effect on the pH of saliva following acid challenge with a cola beverage. Initial pH values of the treated samples were obtained. A cola beverage (1 mL) was added to the saliva sample. The resultant was mixed for 30 seconds at room temperature at the conclusion of which the pH of the sample was recorded. This process was repeated step-wise up to a total of 40 mL of cola. […]

[2] = Buffering effect on pH of saliva following acid challenge with dilute hydrochloric acid; conditions: 0.01 M HCl 6 mL; for acid buffering effect / pH of treated saliva after acid exposure: 20 min; for acid buffering effect: room temperature, Donors 1-3; for pH of treated saliva after acid exposure: all donors
Experimental: as §1
Paraffin-stimulated whole saliva was collected from three healthy subjects (Donors 1-3). Each saliva sample was mixed by ordinary means in the art. Immediately prior to analysis, the ex-vivo saliva samples were pretreated with aliquots of the simple solutions to give a range of active dilutions (i.e., total Zn^2+ concentration of about 0-1500 ppm) including an untreated control. The concentrations of actives (i.e., zinc oxide/zinc citrate/arginine, L-arginine, zinc oxide, zinc citrate) were varied between 0.0% to 50% across all samples, as shown in FIGS. 5-10.
An initial pH of the treated sample was obtained. Dilute hydrochloric acid (HCl, 0.01 M, 6 mL) was added to each saliva sample. The resultant was mixed for 20 minutes at room temperature. The pH of the sample was recorded at the conclusion of the reaction time. Zinc concentration in each sample was determined by ICP-AES.

[3] = Buffering effect on pH of saliva following sucrose challenge (bacterial acid production); conditions: for effect on pH drop after sucrose challenge versus untreated control: Donors A-C, range of concentrations, 2, 4, 6 hours and overnight
Experimental: as §1
Paraffin-stimulated whole saliva was collected from three healthy subjects (Donors A-C). Each saliva sample was mixed by ordinary means in the art. Prior to analysis, the ex-vivo saliva samples were pretreated with aliquots of the simple solutions to give a range of active dilutions (i.e., total Zn^2+ concentration of about 0-3000 ppm) including an untreated control in order to test for buffering effect against sucrose challenge as a function of zinc concentration. An initial pH of the treated sample was obtained. A sucrose solution (5%, 1 mL) was added to each saliva sample. The resultant was mixed for and then incubated at 37° C. and the pH was monitored at 2 hours, 4 hours, 6 hours, and overnight. Zinc concentration in each sample was determined by ICP-AES.
Further experiments were conducted to ensure that zinc oxide/zinc citrate/arginine, not its constituent parts, was needed to achieve the buffering capacity improvement described. The solutions tested were prepared according to the specifications as laid out in Table 3 above.

[4] = Buffering effect on pH of saliva following acid challenge with orange juice; conditions: 0.0625% reagent in saliva (Table 3); FIG. 4
Experimental: as §1
Four solutions containing whole saliva and zinc oxide/zinc citrate/arginine at varying proportions were prepared in accordance with the methods laid out in Example 1 above. The solutions contained the same concentrations as Samples 1-4 as defined in Table 2. The samples were tested for buffering effect on the pH of saliva following acid challenge with orange juice. Initial pH values of the treated samples were obtained. Orange juice (0.1 mL) was added to the saliva sample. The resultant was mixed for 30 seconds at room temperature at the conclusion of which the pH of the sample was recorded. This process was repeated step-wise up to a total of 3.0 mL of orange juice. After this point, orange juice was added to the samples in an amount of 0.5 mL up to 5.0 mL. […]

| Structure (SMILES) | shift of isoelectric point in comparison to the untreated sample [1] | amount of solution able to match the buffering effect of 200 μL or less zinc oxide/zinc citrate/arginine ([2]; FIGS. 5-7) | buffering effect of the 100 ppm arginine solution ([3]; donor C, FIG. 14) | buffering effect of the 100 ppm arginine solution ([3]; donors A or B, FIGS. 12-13) | acid buffering effect ([2]; FIGS. 5-7) | pH of treated saliva after acid exposure [2] | ability to buffer the acidic orange juice compared with controls [4] | effect on pH drop after sucrose challenge versus untreated control [3] |
| --- | --- | --- | --- | --- | --- | --- | --- | --- |
| N=C(N)NCCC[C@H](N)C(=O)O [arginine, L-arginine] | acid shifted the isoelectric point in comparison to the untreated sample providing no acid neutralization benefit | > 500 µL | modest buffering was observed | not seen |  |  |  |  |
| O.O.O.O=C([O-])CC(O)(CC(=O)[O-])C(=O)[O-].O=C([O-])CC(O)(CC(=O)[O-])C(=O)[O-].[Zn+2].[Zn+2].[Zn+2] [zinc citrate, zinc citrate trihydrate] | acid shifted the isoelectric point in comparison to the untreated sample providing no acid neutralization benefit |  |  |  | little to no buffering effect at all | below 4.0 | no benefit in comparison the untreated control | Buffering effects were observed over the untreated control of each of the donors |
| [O]=[Zn] [zinc oxide] |  |  |  |  | some pH stabilization; also recorded: not showing a dose response above 0.1% treatment | lower in saliva treated with ZnO than zinc oxide/zinc citrate/arginine treated saliva |  | Buffering effects were clearly observed over the untreated control of each of the donors |
